Results on 14 compounds are retold here after paper PMC7418971 (PLoS Pathogens, 2020).

The test system of test [1] is Eng195 in MDCK culture. It is filed as cell-based, influenza A virus.
Test [2] addresses Eng195 M2-N31 CD peptide (aa 18-60) (Influenza A virus, UniProt P06821, A27V/L43T). It is filed as biochemical, Influenza A/England/195/2009 (H1N1).
In test [3] the target is Eng195 M2-S31 CD peptide (aa 18-60) (Influenza A virus, UniProt P06821, A27V/L43T/N31S). It is filed as biochemical, Influenza A/England/195/2009 (H1N1).
The subject of test [4] is E195 engineered to express M2-S31. It is filed as cell-based, influenza A virus.
In test [5] the target is Eng195 M2-N31 TM peptide (aa 18-46) (Influenza A virus, UniProt P06821, A27V/L43T). It counts as biochemical, Influenza A/England/195/2009 (H1N1).
Test [6] deals with M2-N31 TM peptides (Influenza A virus, UniProt P06821, A27V/L43T). It is filed as biochemical, Influenza A/England/195/2009 (H1N1).
Test [7] deals with M2-N31 CD peptide channels (Influenza A virus, UniProt P06821, A27V/L43T). It counts as biochemical, Influenza A/England/195/2009 (H1N1).
Test [8] deals with M2-S31N (H3N2 Udorn). The following applies: read-out: IC50 in two-electrode voltage clamp assay; cited from earlier work.

pIC50: −log10 of the molar value.

Turning to `CC(N)C12CC3CC(CC(C3)C1)C2` (racemic) [rimantadine, (RS)-1-(1-adamantyl)ethanamine, reference compound], in test [1], the “inhibitor concentration under which virus could be expanded from plaques” value (“inhibitor concentration” for short) was 80 µM and the “time for cytopathic effects (CPE) to manifest on plaque expansion” value (from here on “time for cytopathic effects (CPE)”) is at most 24 h. Besides, in test [2], the “effect on M2-N31 CD peptide channel activity” value is recorded as “only blocked activity of Eng195 M2-S31 peptides”. Besides, in test [3], the “effect on M2-S31 CD peptide channel activity” value is recorded as “blocked activity” and the “inhibition of channel activity of M2-WT (S31)” value came to 50%.

Consider `CN1CCN(C(=O)c2ccc3ccccc3c2)CC1` [B], for which the “effect on M2-N31 CD peptide channel activity” value in test [2] is reported as “not N31”. Moreover, the “effect on M2-S31 CD peptide channel activity” value in test [3] is listed as “activity versus M2-S31”. The “antiviral effect versus E195 with M2-S31 (N31S)” value (from here on “antiviral effect versus E195”) in test [4] is given as “neither B nor K exhibited antiviral effects”.

As for `Cc1c2ccccc2n2cc(-c3ccccc3)nc(C(C)C)c12` [DL7], in test [5], the “% M2 activity (40 µM) N31 TM” value turned out to be 15.0%. Further, the “% M2 activity (40 µM) N31 CD” value in test [2] was 19.5%. Also, the “% M2 activity (40 µM) S31 CD” value in test [3] was found to be 31.3%.

With `Cc1ccc2nc(Oc3ccccc3)ccc2c1` [DP9], in test [5], the “% M2 activity (40 µM) N31 TM” value is recorded as 100%. In addition, the “% M2 activity (40 µM) N31 CD” value in test [2] is 65.8%. Besides, the “% M2 activity (40 µM) S31 CD” value in test [3] was found to be 97.4%.

Take `c1cc2nc(C34CC5CC(CC(C5)C3)C4)[nH]c2cn1` [D]: the “effect on M2-N31 CD peptide channel activity” value in test [2] is recorded as “inhibited”. Moreover, in test [3], the “effect on M2-S31 CD peptide channel activity” value is “inhibited”.

For the compound `CCN1CCC(NC2C3CC4CC(C3)CC2C4)CC1` (stereo not shown) [E], the “effect on M2-N31 CD peptide channel activity” value in test [2] was “no activity”. Further, the “effect on M2-S31 CD peptide channel activity” value in test [3] is “no activity”.

With `OC(CN1CCCC1)C12CC3CC(CC(C3)C1)C2` (stereo not shown) [G], the “effect on M2-N31 CD peptide channel activity” value in test [2] is reported as “no activity”. The “effect on M2-S31 CD peptide channel activity” value in test [3] is “no activity”.

Turning to `Cc1ncc(C23CC4CC(CC(C4)C2)C3)[nH]1` [H], the “effect on M2-N31 CD peptide channel activity” value in test [2] was “inhibited”. Further, the “effect on M2-S31 CD peptide channel activity” value in test [3] is reported as “inhibited”.

`OCCNC12CC3CC(CC(C3)C1)C2` [J]: the “effect on M2-N31 CD peptide channel activity” value in test [2] is “inhibited”. Also, the “effect on M2-S31 CD peptide channel activity” value in test [3] is reported as “inhibited”.

Regarding `O=C(Nc1nnc[nH]1)c1cc2ccccc2o1` [K], the “effect on M2-N31 CD peptide channel activity” value in test [2] is “not N31”. The “effect on M2-S31 CD peptide channel activity” value in test [3] is “activity versus M2-S31”. Moreover, the “antiviral effect versus E195” value in test [4] was “neither B nor K exhibited antiviral effects”.

As for `COc1ccccc1NC(=S)NC(=O)c1cc2ccccc2cc1OC` [L1.1], in test [1], the “inhibitor concentration” value was at most 20 µM and the “time for cytopathic effects (CPE)” value was “at least 48 h”. Moreover, the “% M2 activity (40 µM) N31 TM” value in test [5] stood at 22.0%. The “% M2 activity (40 µM) N31 CD” value in test [2] was 32.8%. In addition, the “inhibition of M2-N31 TM peptide channels in bilayer” value in test [6] was “inhibited TM peptides”. In addition, the “% M2 activity (40 µM) S31 CD” value in test [3] is listed as 41.8%. Moreover, the “antiviral effect versus E195” value in test [4] is reported as “active”.

For the compound `Nc1nc(-c2cc3c(cc2Cl)OCCO3)cs1` [L], the “effect on M2-N31 CD peptide channel activity” value in test [2] is “inactive”. The “effect on M2-S31 CD peptide channel activity” value in test [3] was “inactive”.

Regarding `c1csc(-c2cc(CNC34CC5CC(CC(C5)C3)C4)no2)c1` [M2WJ332, (3S,5S,7S)-N-{[5-(thiophen-2-yl)-1,2-oxazol-3-yl]methyl}tricycle[3.3.1.1~3,7~]decan-1-aminium, reference compound], in test [1], the “inhibitor concentration” value turned out to be 80 µM, the “plaques retained by selected supernatants” value is ~ 30 % of DMSO control and the “time for cytopathic effects (CPE)” value is reported as at most 24 h. Further, in test [7], the “effect on CD peptide activity in bilayer” value is “abrogate activity” and the “inhibition of M2-N31 CD peptide channels in bilayer” value is “sensitive to nanomolar concentrations”. Moreover, in test [8], the pIC50 (usually −log10 of the IC50, conventionally taken in molar units) was 4.80. Moreover, in test [5], the “% M2 activity (40 µM) N31 TM” value was determined as 100% and the “effect on M2-N31 TM peptide channel activity” value is reported as “no TM-specific activity”. In test [2], the “% M2 activity (40 µM) N31 CD” value amounted to 58.4%, the “effect on M2-N31 CD peptide channel activity” value was “blocked the activity” and the “inhibition of channel activity of the N31 CD peptide” value is recorded as ~ 40%. In test [6], the “effect on TM peptide activity in bilayer” value is listed as “modest effect” and the “inhibition of M2-N31 TM peptide channels in bilayer” value is on record as “retained channel activity”. The “% M2 activity (40 µM) S31 CD” value in test [3] is given as 85%.

With `CCCCCCCCCN1C[C@H](O)[C@@H](O)[C@H](O)[C@H]1CO` [NNDNJ, reference compound], the “effect on M2-N31 CD peptide channel activity” value in test [2] was “blocked the activity”. Further, the “effect on M2-S31 CD peptide channel activity” value in test [3] is “blocked the activity”.
